Like-named read-outs stand apart in the source and are kept apart here.
Tests used:
AMPK = conditions: cited from earlier work
amp-1(ok524) animals [1] = conditions: 1 mM sodium azide for 18 hours; amp-1(ok524) versus wild type
Experimental: Dauer assays, heat tolerance and behavioral assays were performed as described. Starvation was performed by transfer to bacteria-free, peptone-free plates. […] Gut fluorescence was photographed on the focal plane of the lumen with a DM505 filter on a NIKON E800 microscope. Average intensity was determined with METAMORPH™ 6.1r1 software.

N2 (wild type) animals = tested on: N2 (wild type) animals
Source text: (§1) To determine if the AMP/ATP ratio changed with age, we measured the levels of AMP, ADP, and ATP directly. We lysed 30 adult worms of the appropriate age, grown at the indicated temperature, lysed them, and separated the extract by Reversed Phase HPLC, measuring the Absorbance 260 nm. We used a C. elegans strain that lacks sperm at 25 C [CF512: fem-1(−); fer-15(−)].
(§2) Thirty animals of the appropriate age were hand-transferred to ice-cold lysis buffer (ATP Bioluminiscense Kit, Roche), frozen in liquid nitrogen, boiled for 15 minutes, passed trough a 0.2μ filter (Nanosep), and subjected to isocratic reversed phase chromatography using a TARGA C18 250×4.6 mm 5 μM column equilibrated in 100 mM KH2PO4, pH 6.0 at 1 mL per min. Detection at 260 nm was performed using a WATERS 486 tunable detector. Peak areas were measured using PEAK EXPLORER™ software. […] Unless noted, animals were one day old adults.
(§3) Dauer assays, heat tolerance and behavioral assays were performed as described. Starvation was performed by transfer to bacteria-free, peptone-free plates. Treatment with […] sodium azide was performed by transfer to plates with the drug; fraction alive was determined visually, six hours after transfer to normal growth. Gut fluorescence was photographed on the focal plane of the lumen with a DM505 filter on a NIKON E800 microscope. Average intensity was determined with METAMORPH™ 6.1r1 software.

amp-1(ok524) animals [2] = tested on: amp-1(ok524) animals
Source text: as §1, §2, §3

[3] = 1 mM Azide 4 hours, then no azide 1 hour

In the case of “Leptin: peptide hormone that increases AMPK activity when applied to cells”, the “effect on AMPK activity” value (AMPK; applied to cells) is listed as “increases AMPK activity”.

For [N-]=[N+]=[N-] [sodium azide], the sensitivity to killing (amp-1(ok524) animals [1]) was “more sensitive than wild type animals to killing”, the “AMP/ATP Average” value (N2 (wild type) animals; 1 mM Azide 1 hour) was 2.08 and the “AMP/ATP Average” value (N2 (wild type) animals; 1 mM Azide 4 hours) was 2.53. For the same molecule, the “AMP/ATP Average” value (N2 (wild type) animals; [3]) was 1.08, the “AMP/ATP Average” value (amp-1(ok524) animals [2]; 1 mM Azide 1 hour) was 3.19 and the “AMP/ATP Average” value (amp-1(ok524) animals [2]; 1 mM Azide 4 hours) was 4.34. The “AMP/ATP Average” value (amp-1(ok524) animals [2]; [3]) was 1.24 and the “AMP/ATP Average” value (amp-1(ok524) animals [2]; 1 mM Azide 4 hours, then no azide 2 hour) was 1.29.

In the case of CN(C)C(=N)N=C(N)N [Metformin], the “effect on AMPK activity” value (AMPK) is given as “stimulate AMPK activity”.

B1: adiponectin: globular and full-length adiponectin protein (protein, UniProt Q15848 19-244, looked up)
Adiponectin: ETTTQGPGVLLPLPKGACTGWMAGIPGHPGHNGAPGRDGRDGTPGEKGEKGDPGLIGPKGDIGETGVPGAEGPRGFPGIQGRKGEPGEGAYVYRSAFSVGLETYVTIPNMPIRFTKIFYNQQNHYDGSTGKFHCNIPGLYYFAYHITVYMKDVKVSLFKKDKAMLFTYDQYQENNVDQASGSVLLHLEVGDQVWLQVYGEGERNGLYADNDNDSTFTGFLLYHDTN
In the case of B1, the “effect on AMPK activity” value (AMPK; liver cells) is listed as “stimulates AMPK activity” and the “effect on AMPK activity” value (AMPK; skeletal muscle) is listed as “stimulate AMPK activity”.

From US20060147947A1, “AMPK pathway components” (priority 2002, published 2006)
